Laboratory results published in PubChem BioAssay AID248 (DTP/NCI, 2004).
Several values for one entry are separate records, joined by “and”; a condition that tells them apart may be missing. Equal values may be shown once. Inconclusive results and toxic doses are left out. No stated cut-off is given here; in the data, active means T/C of 150% or more; inactive means T/C below 125%.

Test system: L1210 leukemia ip in BDF1 mice, survival T/C
Assay: NCI In Vivo Anticancer Drug Screen. Data for tumor model L1210 Leukemia (intraperitoneal) in B6D2F1 (BDF1) mice
Conditions: endpoint: mean survival time, higher = longer survival
Method in brief: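 Transplanted-tumor mice were given test agent; controls received vehicle only. Survival readings from the two groups were divided (treated over control).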

[1] = dose: 200.0 mg/kg/injection, schedule: Q01DX001 (ip), vehicle: saline
[2] = dose: 100.0 mg/kg/injection, schedule: Q01DX001 (ip), vehicle: carboxymethylcellulose (CMC)
[3] = dose: 200.0 mg/kg/injection, schedule: Q01DX001 (ip), vehicle: carboxymethylcellulose (CMC)
[4] = dose: 100.0 mg/kg/injection, schedule: Q04DX003 (ip), vehicle: Klucel (hydroxypropylcellulose) (HPC)
[5] = dose: 200.0 mg/kg/injection, schedule: Q04DX003 (ip), vehicle: Klucel (hydroxypropylcellulose) (HPC)
[6] = dose: 400.0 mg/kg/injection, schedule: Q04DX003 (ip), vehicle: Klucel (hydroxypropylcellulose) (HPC)
[7] = dose: 100.0 mg/kg/injection, schedule: Q01DX009 (ip), vehicle: Klucel (hydroxypropylcellulose) (HPC)
[8] = dose: 100.0 mg/kg/injection, schedule: Q04DX002 (ip), vehicle: Klucel (hydroxypropylcellulose) (HPC)
[9] = dose: 200.0 mg/kg/injection, schedule: Q01DX009 (ip), vehicle: Klucel (hydroxypropylcellulose) (HPC)
[10] = dose: 200.0 mg/kg/injection, schedule: Q04DX002 (ip), vehicle: Klucel (hydroxypropylcellulose) (HPC)
[11] = dose: 400.0 mg/kg/injection, schedule: Q04DX002 (ip), vehicle: Klucel (hydroxypropylcellulose) (HPC)
[12] = dose: 100.0 mg/kg/injection, schedule: Q04DX003 (ip), vehicle: saline with Tween-80
[13] = dose: 200.0 mg/kg/injection, schedule: Q04DX003 (ip), vehicle: saline with Tween-80
[14] = dose: 400.0 mg/kg/injection, schedule: Q04DX003 (ip), vehicle: saline with Tween-80

Measured: T/C

CCOC(=O)C(OCc1ccccc1)(C(=O)NCCc1ccc(OC)c(OC)c1)C(C)C (centres undefined)
inactive: dose: 25.0 mg/kg/injection, schedule: Q01DX009 (ip), vehicle: other 108 % of control | dose: 50.0 mg/kg/injection, schedule: Q01DX009 (ip), vehicle: other 108 % of control | dose: 100.0 mg/kg/injection, schedule: Q01DX009 (ip), vehicle: other 103 % of control | dose: 200.0 mg/kg/injection, schedule: Q01DX009 (ip), vehicle: other 99 % of control | dose: 400.0 mg/kg/injection, schedule: Q01DX009 (ip), vehicle: other 91 % of control

COc1ccc(C2=NNC(=O)C2(C)Br)cc1 (centres undefined)
inactive: dose: 100.0 mg/kg/injection, schedule: Q01DX001 (ip), vehicle: saline 105 % of control | [1] 91 % of control | dose: 400.0 mg/kg/injection, schedule: Q01DX001 (ip), vehicle: saline 100 % of control

CC[N+](CC)(CC)CC(=O)NCc1ccco1
inactive: dose: 50.0 mg/kg/injection, schedule: Q01DX001 (ip), vehicle: carboxymethylcellulose (CMC) 105 % of control | dose: 50.0 mg/kg/injection, schedule: Q01DX009 (ip), vehicle: carboxymethylcellulose (CMC) 103 % of control | dose: 50.0 mg/kg/injection, schedule: Q04DX003 (ip), vehicle: carboxymethylcellulose (CMC) 94 % of control | [2] 99 % of control | dose: 100.0 mg/kg/injection, schedule: Q01DX009 (ip), vehicle: carboxymethylcellulose (CMC) 103 % of control and 104 % of control | dose: 100.0 mg/kg/injection, schedule: Q04DX002 (ip), vehicle: carboxymethylcellulose (CMC) 95 % of control and 103 % of control | dose: 100.0 mg/kg/injection, schedule: Q04DX003 (ip), vehicle: carboxymethylcellulose (CMC) 102 % of control | [3] 99 % of control | dose: 200.0 mg/kg/injection, schedule: Q01DX009 (ip), vehicle: carboxymethylcellulose (CMC) 101 % of control and 90 % of control | dose: 200.0 mg/kg/injection, schedule: Q04DX002 (ip), vehicle: carboxymethylcellulose (CMC) 97 % of control and 92 % of control | dose: 200.0 mg/kg/injection, schedule: Q04DX003 (ip), vehicle: carboxymethylcellulose (CMC) 102 % of control | dose: 400.0 mg/kg/injection, schedule: Q04DX002 (ip), vehicle: carboxymethylcellulose (CMC) 90 % of control

O=C(O)C(F)(F)C(F)(F)C(F)(F)F.[Ag]
inactive: dose: 10.0 mg/kg/injection, schedule: Q01DX001 (ip), vehicle: acetone 101 % of control | dose: 20.0 mg/kg/injection, schedule: Q01DX001 (ip), vehicle: acetone 96 % of control | dose: 40.0 mg/kg/injection, schedule: Q01DX001 (ip), vehicle: acetone 109 % of control

CC(=O)O/N=C1\c2ccccc2-c2ccc([N+](=O)[O-])cc21
inactive: dose: 75.0 mg/kg/injection, schedule: Q01DX009 (ip), vehicle: Klucel (hydroxypropylcellulose) (HPC) 93 % of control | [4] 97 % of control | dose: 150.0 mg/kg/injection, schedule: Q01DX009 (ip), vehicle: Klucel (hydroxypropylcellulose) (HPC) 86 % of control | [5] 95 % of control | dose: 300.0 mg/kg/injection, schedule: Q01DX009 (ip), vehicle: Klucel (hydroxypropylcellulose) (HPC) 86 % of control | [6] 100 % of control

O=C(O)c1c(Br)c(Br)c(Br)c(Br)c1C(=O)Nc1ccc([N+](=O)[O-])cc1
inactive: [7] 104 % of control | [8] 96 % of control | [9] 109 % of control | [10] 96 % of control | [11] 107 % of control

O=NN(CCF)C(=O)NC1CCCCCCCCCCC1
inactive: dose: 40.0 mg/kg/injection, schedule: Q01DX001 (ip), vehicle: other 108 % of control | dose: 60.0 mg/kg/injection, schedule: Q01DX001 (ip), vehicle: other 112 % of control

CCOC(=O)Nc1ccccc1C
inactive: [4] 95 % of control | [5] 100 % of control | dose: 222.0 mg/kg/injection, schedule: Q01DX Z (ip), vehicle: methylcellulose (MC) 101 % of control | dose: 333.0 mg/kg/injection, schedule: Q01DX Z (ip), vehicle: methylcellulose (MC) 101 % of control | [6] 94 % of control

O=C(N/N=C\c1ccc([N+](=O)[O-])cc1)c1ccccc1
inactive: dose: 100.0 mg/kg/injection, schedule: Q01DX009 (ip), vehicle: saline with Tween-80 97 % of control | dose: 200.0 mg/kg/injection, schedule: Q01DX009 (ip), vehicle: saline with Tween-80 94 % of control | dose: 400.0 mg/kg/injection, schedule: Q01DX009 (ip), vehicle: saline with Tween-80 93 % of control

COC(=O)/C=C/C=C(c1ccccc1)c1ccccc1
inactive: [2] 93 % of control | [3] 102 % of control | dose: 400.0 mg/kg/injection, schedule: Q01DX001 (ip), vehicle: carboxymethylcellulose (CMC) 102 % of control

CCCCCC1(O)C2CCCC1CCC2 (centres undefined)
inactive: [12] 94 % of control | [13] 97 % of control | [14] 105 % of control

C=CCc1ccc(OCCOCCNC2CC3CCC2(C)C3(C)C)c(OC)c1 (centres undefined)
inactive: [4] 89 % of control

CC1CC2=C(CCCO2)C(C)C1 (centres undefined)
inactive: [1] 95 % of control

c1ccc(CNCc2cccnc2)cc1
inactive: dose: 75.0 mg/kg/injection, schedule: Q01DX009 (ip), vehicle: other 91 % of control | dose: 150.0 mg/kg/injection, schedule: Q01DX009 (ip), vehicle: other 98 % of control

O=C(Oc1ccc(Cl)cc1Cl)c1ccc([N+](=O)[O-])cc1
inactive: [8] 93 % of control | [10] 97 % of control | [11] 87 % of control

O=C1c2ccccc2C(=O)N1Cc1ccccc1
inactive: [12] 92 % of control | [13] 100 % of control | [14] 96 % of control

CC1=CC(C)(C)Nc2cc(N)ccc21
inactive: dose: 75.0 mg/kg/injection, schedule: Q01DX001 (ip), vehicle: other 110 % of control | dose: 150.0 mg/kg/injection, schedule: Q01DX001 (ip), vehicle: other 105 % of control | dose: 300.0 mg/kg/injection, schedule: Q01DX001 (ip), vehicle: other 91 % of control

[Br][Pb]([Br])([c]1ccccc1)[c]1ccccc1
inactive: [7] 117 % of control | [4] 91 % of control | [9] 98 % of control | [5] 100 % of control | [6] 94 % of control

CC(C)C(=O)NNCc1ccccc1
inactive: dose: 12.5 mg/kg/injection, schedule: Q01DX009 (ip), vehicle: Klucel (hydroxypropylcellulose) (HPC) 106 % of control | dose: 25.0 mg/kg/injection, schedule: Q01DX009 (ip), vehicle: Klucel (hydroxypropylcellulose) (HPC) 104 % of control | dose: 50.0 mg/kg/injection, schedule: Q01DX009 (ip), vehicle: Klucel (hydroxypropylcellulose) (HPC) 97 % of control | [7] 92 % of control

C/C(=C1\C(=O)Nc2ccccc21)c1cccnc1
inactive: dose: 25.0 mg/kg/injection, schedule: Q01DX Z (ip), vehicle: carboxymethylcellulose (CMC) 103 % of control | dose: 50.0 mg/kg/injection, schedule: Q01DX Z (ip), vehicle: carboxymethylcellulose (CMC) 96 % of control | dose: 100.0 mg/kg/injection, schedule: Q01DX Z (ip), vehicle: carboxymethylcellulose (CMC) 103 % of control | dose: 200.0 mg/kg/injection, schedule: Q01DX Z (ip), vehicle: carboxymethylcellulose (CMC) 111 % of control

CCCCCn1c(C)cc(/C=C\c2ccc3cc(C)ccc3[n+]2C)c1C
inactive: dose: 0.5 mg/kg/injection, schedule: Q01DX001 (ip), vehicle: carboxymethylcellulose (CMC) 94 % of control | dose: 0.5 mg/kg/injection, schedule: Q01DX009 (ip), vehicle: saline sonified 116 % of control | dose: 0.5 mg/kg/injection, schedule: Q04DX003 (ip), vehicle: saline sonified 98 % of control | dose: 0.66 mg/kg/injection, schedule: Q01DX009 (ip), vehicle: saline 101 % of control | dose: 1.0 mg/kg/injection, schedule: Q01DX001 (ip), vehicle: carboxymethylcellulose (CMC) 97 % of control | dose: 1.0 mg/kg/injection, schedule: Q01DX009 (ip), vehicle: saline 100 % of control | dose: 1.0 mg/kg/injection, schedule: Q04DX003 (ip), vehicle: saline sonified 97 % of control | dose: 1.5 mg/kg/injection, schedule: Q01DX009 (ip), vehicle: saline 92 % of control | dose: 2.0 mg/kg/injection, schedule: Q01DX001 (ip), vehicle: carboxymethylcellulose (CMC) 97 % of control | dose: 2.0 mg/kg/injection, schedule: Q04DX003 (ip), vehicle: saline sonified 106 % of control

Cc1ccc(S(=O)(=O)N/N=C/c2ccc(C)s2)cc1
inactive: [12] 95 % of control | [13] 91 % of control | [14] 87 % of control
